Test results as given in PMC9664868, “Dephospho-Coenzyme A Kinase Is an Exploitable Drug Target against Plasmodium falciparum: Identification of Selective Inhibitors by High-Throughput Screening of a Large Chemical Compound Library” (Antimicrobial Agents and Chemotherapy, 2022).
Read-outs that look alike come from different tables or passages of the source. Values belong to the molecule of their own block, whether it stands above or below them.

Assays:
PfDPCK [1] = target: T1, PfDPCK (Plasmodium falciparum, UniProt Q8IL34); experiment: Kinetic analysis of recombinant PfDPCK (ADP Hunter Plus); format: biochemical
Method: (§1) PfDPCK and HsCOASY activity was measured by quantifying ADP produced in the reaction by a coupling assay using the ADP Hunter Plus assay kit (DiscoverX, USA) according to the manufacturer's instructions. Briefly, enzymatic reactions were carried out in a 20-μL mixture of assay buffer containing 15 mM HEPES, 20 mM NaCl, 1 mM EGTA, 0.02% Tween 20, 10 mM MgCl2, 0.1% bovine gamma globulin, 50 ng of recombinant PfDPCK or HsCOASY, 4 to 256 μM dephospho-CoA, and 5 to 300 μM ATP on a black microplate. All reactions were performed for 2 h, reagents A and B were added, and they were then reincubated for 60 min at 30°C. After reactions were terminated by addition of ADP Hunter Stop solution, the fluorescent signal was measured using SpectraMax Paradigm (Molecular Devices, CA, USA) at excitation and emission wavelengths of 530 and 590 nm, respectively. The kinetic parameters were calculated using the nonlinear regression function using the single saturating concentrations of the substrates by the GraphPad Prism software (GraphPad Software Inc., San Diego, CA). The experiments were repeated three times in triplicate using proteins purified from independent cultures. Kinetic values of enzymes are presented as the means ± standard errors (SEs).

HsCOASY = target: T2, HsCOASY (Homo sapiens, UniProt Q13057); experiment: Kinetic analysis of recombinant HsCOASY (ADP Hunter Plus); format: biochemical; conditions: substrate of HsCOASY
T2 construct: His tag (pCold1 vector); made in house; host or cells: Escherichia coli BL21Star (DE3)
T2 sequence (Q13057 1-564): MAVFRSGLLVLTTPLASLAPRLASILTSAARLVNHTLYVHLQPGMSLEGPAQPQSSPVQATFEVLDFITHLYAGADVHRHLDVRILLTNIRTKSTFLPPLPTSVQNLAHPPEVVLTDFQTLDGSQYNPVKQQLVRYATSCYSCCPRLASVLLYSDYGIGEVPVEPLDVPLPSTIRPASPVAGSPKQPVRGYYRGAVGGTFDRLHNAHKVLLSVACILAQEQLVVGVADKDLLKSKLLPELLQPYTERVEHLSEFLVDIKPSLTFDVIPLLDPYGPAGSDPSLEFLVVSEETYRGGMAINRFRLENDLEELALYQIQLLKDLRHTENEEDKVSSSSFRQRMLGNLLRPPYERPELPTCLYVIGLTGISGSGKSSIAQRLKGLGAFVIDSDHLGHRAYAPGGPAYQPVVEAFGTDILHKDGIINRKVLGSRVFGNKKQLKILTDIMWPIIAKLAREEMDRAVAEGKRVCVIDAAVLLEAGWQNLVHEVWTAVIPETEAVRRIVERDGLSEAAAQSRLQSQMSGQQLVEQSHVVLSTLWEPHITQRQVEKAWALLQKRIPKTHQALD
Method: as §1

PfDPCK [2] = target: T1, PfDPCK; experiment: PfDPCK inhibition, enzyme-coupled fluorescence ADP detection assay (HTS and IC50 determination); format: biochemical
Method: High-throughput screening against recombinant PfDPCK was performed using the Drug Discovery Initiative (DDI) full library, available from The University of Tokyo, composed of approximately 210,000 compounds. The primary assay was performed on 1,536-well white plate format with a final volume of 2 μL/well, containing 10 μM test compounds using a Multidrop Combi reagent dispenser (Thermo Fisher Scientific, Waltham, MA). The reaction was conducted in the assay buffer described above with 100 μM ATP and 50 μM dephospho-CoA. The assay was carried out at room temperature for 4 h in a closed plastic container with wet tissues. The reaction was stopped, and produced ADP was quantified using an enzyme-coupled fluorescence ADP detection assay, using PHERAstar microplate reader (BMG Labtech, Offenburg, Germany) with excitation at 540 nm and emission at 590 nm, as previously described ([17]). The inhibition level was calculated as the percentage inhibition of DPCK activity with each compound compared to the activity with only dimethyl sulfoxide (DMSO) as control (no inhibition) and that with no enzyme as 100% inhibition. IC50 values of the hit compounds were determined under the same assay conditions for the screening: Z′ factor, signal-to-background ratio (S/B), signal-to-noise ratio (S/N), and coefficient of variation (CV) were calculated to estimate the quality of screening system as previously described ([18], [38]).
The primary hits were reassayed in quadruplicate (n = 4) as in the primary screening. We next tested the confirmed secondary hits to exclude false positives that inhibit coupled fluorescence assay, but not PfDPCK. After exclusion of false positives, all tertiary hits were tested against human HsCOASY in the counterassay to exclude compounds that inhibit both PfDPCK and HsCOASY. The compounds showing >10% inhibition against HsCOASY were excluded from further studies. The IC50 values of the hit compounds were determined under the same assay conditions described as above for the primary screening, with the serially diluted compounds at 20, 10, 2.5, 0.5, and 0.1 μM at final concentrations. The assay was conducted in quadruplicate for each dilution, and IC50 values were calculated using GraphPad Software (San Diego, California USA).

HepG2 cell line = experiment: Cytotoxicity assay (Cell Counting Kit-8); format: cell-based, human; conditions: Homo sapiens, HepG2, read-out: IC50 (μM) of: HepG2
Method: Cytotoxicity against human cells was evaluated using the human liver carcinoma HepG2 cell line. HepG2 cells were cultured in D-MED supplemented with 4 mM L-glutamine and 10% fetal bovine serum (FBS) in a 75-cm^2 flask (Violamo) at 37°C. For the cytotoxicity assay, HepG2 cells in semiconfluent state were detached from the flask by incubating the cells with 5 mL D-MEM containing 0.25% trypsin-EDTA. After detachment, HepG2 cells were resuspended in D-MEM-supplemented L-glutamine and FBS, and cell viability was evaluated by incubating cells with 0.4% Trypan blue on a hemocytometer. An approximately 50-μL suspension containing 3,000 cells was dispensed into each well on a 384-well clear-bottom plate using a Multidrop Combi dispenser. Compounds dissolved in DMSO had been dispensed into wells to yield final concentrations of 100, 20, 4, 0.8, and 0.2 μM before cells were added. After cells were added to the plates, they were cultured at 37°C under 5% CO2. After 48 h cultivation, 5 μL of Cell Counting Kit-8 (Dojindo, Japan) was added, and the plates were further incubated for 2 h to assess cell growth and survival.

[3] = system: P. falciparum drug-sensitive 3D7 strain; experiment: Erythrocytic-stage parasite growth inhibition, diaphorase-coupled LDH assay, 3D7; format: cell-based, Plasmodium falciparum
Method: (§2) Selected hit compounds were also tested against erythrocytic-stage parasites of P. falciparum drug-sensitive 3D7 and drug-resistant Dd2 strains ([39]). For the phenotypic assay, parasite cultures were synchronized with 5% (wt/vol) D-sorbitol as previously described ([40]). A synchronized culture containing ring-stage parasites of 0.3% parasitemia was initiated with a culture volume of 25 μL/well on a 384-well plate. A series of diluted compounds (at final concentrations of 50, 10, 2, 0.4, and 0.08 μM) were used to calculate IC50 values. Mefloquine at 50 μM and atovaquone at 20 μM were used as no-growth control (100% inhibition). After 72 h of incubation, parasite growth was measured by diaphorase-coupled lactate dehydrogenase (LDH) assay as previously described ([41]). Absorbance at 650 nm was measured using SpectraMax Paradigm multimode microplate reader (Molecular Devices, San Jose, CA, USA). The IC50 values were calculated as described above.

[4] = system: P. falciparum drug-resistant Dd2 strain; experiment: Erythrocytic-stage parasite growth inhibition, diaphorase-coupled LDH assay, Dd2; format: cell-based, Plasmodium falciparum; conditions: for IC50: Plasmodium falciparum
Method: as §2

PfDPCK [5] = target: T1, PfDPCK; experiment: Mechanism of PfDPCK inhibition by Lineweaver-Burk plot; format: biochemical
Method: In order to understand the mechanism of PfDPCK inhibition of the identified compounds, we independently selected compounds from 359 PfDPCK-specific inhibitor candidates (showing >40% inhibition at 10 μM against PfDPCK), based on the more stringent criteria of >80% inhibition at 10 μM against PfDPCK and <10% inhibition against HsCOASY, to yield 30 hits. The hits were prioritized using a multiparameter optimization (MPO) scoring model, developed by MMV (https://www.optibrium.com/downloads/scoring-profiles/mmv-antimalarial-scoring-profile/) based on calculated physicochemical properties, including molecular weight, logP, hydrogen bond donors and acceptors, rotatable bonds, and structural alerts ([20], [21]). We finally chose six representative compounds (A-15, A-33, and A-69, shown in Table S1, and other three compounds; A-126, A-127, and A-128) by manual inspection with “chemist eye” for chemical attractiveness (druglikeness). […] Furthermore, two compounds, A-33 and A-69, are considered to be pan-assay interference compounds (PAINS) (phenolic Mannich base) ([22]). We consequently focused on two commercially available compounds (A-15 and A-127) (Fig. 6A) and investigated their mechanism of inhibition. We differentiated the type of inhibition by Lineweaver-Burk plot with various concentrations of one substrate (dephospho-CoA or ATP), while the other substrate was given in saturating concentrations in kinetic studies (Fig. 5).
FIG 5 Lineweaver-Burk plots showing inhibition of two compounds, compound A-15 (A, B) and compound A-127 (C, D) on the PfDPCK activity. The enzymatic activities were determined with various concentrations of dephospho-CoA and 200 μM ATP (A, C) or various concentrations of ATP and 200 μM dephospho-CoA (B, D) in the presence of a range of concentrations of inhibitors. Data are shown in means ± SEMs of triplicate.
as §1

[6] = substrate: CC(C)(COP(=O)(O)OP(=O)(O)OCC1OC(n2cnc3c(N)ncnc32)C(O)C1O)C(O)C(=O)NCCC(=O)NCCS; experiment: Kinetic analysis of recombinant PfDPCK (ADP Hunter Plus); format: biochemical, Plasmodium falciparum; conditions: other: substrate of PfDPCK; 30.0 °C
Method: as §1

[7] = substrate: CC(C)(COP(=O)(O)OP(=O)(O)OCC1OC(n2cnc3c(N)ncnc32)C(O)C1O)C(O)C(=O)NCCC(=O)NCCS; experiment: Kinetic analysis of recombinant HsCOASY (ADP Hunter Plus); format: biochemical, human; conditions: other: substrate of HsCOASY; 30.0 °C
Method: as §1

[8] = recombinant enzyme, means ± SEMs, read-out: IC50 (μM) of: PfDPCK
[9] = Plasmodium falciparum, drug-sensitive 3D7, 72 h, means ± SEMs, read-out: IC50 (μM) of: Pf cell 3D7
[10] = drug-resistant Dd2, 72 h, means ± SEMs, read-out: IC50 (μM) of: Pf cell Dd2

Molecule: Nc1ncnc2c1ncn2[C@@H]1O[C@H](COP(=O)(O)OP(=O)(O)OP(=O)(O)O)[C@@H](O)[C@H]1O [ATP]
Km (PfDPCK [1]; substrate of PfDPCK): 88.1 ± 11 µM
Km (HsCOASY): 115 ± 13.1 µM

IC50 (PfDPCK [2]; [8]): 8.69 ± 0.01 µM
IC50 [3, 9]: 6.04 ± 0.05 µM
IC50 [4, 10]: 0.7 ± 0.22 µM
Molecule: O=Cc1cc(C23CC4CC(CC(C4)C2)C3)cc([N+](=O)[O-])c1O [Compound A-63]
IC50 (HepG2 cell line; 48 h, means ± SEMs): > 100 µM
Selectivity index IC50 (HepG2/3D7) ([3]; HepG2 IC50 / 3D7 IC50): >16.6
Selectivity index IC50 (HepG2/Dd2) ([4]; HepG2 IC50 / Dd2 IC50): >142.8

IC50 (PfDPCK [2]; [8]): 9.21 ± 0.12 µM
IC50 [3, 9]: 4.4 ± 0.05 µM
IC50 [4, 10]: 0.36 ± 0.1 µM
Molecule: S=C(NCCc1ccccc1)NNc1nc2ccccc2[nH]1 [Compound A-65]
IC50 (HepG2 cell line; ND (maximum concentration tested 100 μM)): > 100 µM

IC50 (PfDPCK [2]; Table S1, means ± SEM, read-out: IC50 (μM) Pf DPCK): 5.01 ± 0.46 µM
Ki (PfDPCK [5]; in respect of ATP, 200 μM dephospho-CoA): 8.99 µM
Ki (PfDPCK [5]; in respect of dephospho-CoA, 200 μM ATP): 14.9 µM
IC50 ([3]; Plasmodium falciparum, 3D7, Table S1, means ± SEM, read-out: IC50 (μM) Pf cell 3D7): < 2 µM
IC50 ([4]; DD2, Table S1, means ± SEM, read-out: IC50 (μM) Pf cell Dd2): < 10 µM
Molecule: COc1cc(N2CCCC2)cc2ccc(-c3ccccn3)nc12 [Compound A-127]
type of inhibition (PfDPCK [5]; in respect of dephospho-CoA and ATP, Lineweaver-Burk plot): uncompetitive or noncompetitive inhibition
inhibition at 2 µM ([3]; Plasmodium falciparum, 3D7, at 2 μM, read-out: growth inhibition against 3D7): 80%

Molecule: CC(C)(CO)[C@@H](O)C(=O)NCCC(=O)O [pantothenate]
specific activity (PfDPCK [1]; as a substrate of PfDPCK): < 0.01 µmol/min/mg

B1: PfDPCK (Plasmodium falciparum 3D7) (protein)
chain: MFLKFFLDKCILCFLALGSIPIGYINRKNKFRKIENQKYALFSSIVMNSFLIYLNKFFGILGIFNFFLGNYLCLIGITGGIAVGKSTFCNFLKKKDVVVINADEITSKIYTKDSICYKKIVKHFGENILNNDKSINRTLLRKIVFNNEENVKYINKITHTYIILQIIKECLKYKFLYFKYNVAIEAPLLIETKLYLLTSPVILLKSSVRNQIKRILSRDKNCTYDTAMGIIKNQLPTDEKIKYADIIINNDGDILDLQMKCDVVYNKYLKNFFF
Km [6]: 105.3 ± 10.2 µM

B2: HsCOASY (Homo sapiens) (protein)
chain: MAVFRSGLLVLTTPLASLAPRLASILTSAARLVNHTLYVHLQPGMSLEGPAQPQSSPVQATFEVLDFITHLYAGADVHRHLDVRILLTNIRTKSTFLPPLPTSVQNLAHPPEVVLTDFQTLDGSQYNPVKQQLVRYATSCYSCCPRLASVLLYSDYGIGEVPVEPLDVPLPSTIRPASPVAGSPKQPVRGYYRGAVGGTFDRLHNAHKVLLSVACILAQEQLVVGVADKDLLKSKLLPELLQPYTERVEHLSEFLVDIKPSLTFDVIPLLDPYGPAGSDPSLEFLVVSEETYRGGMAINRFRLENDLEELALYQIQLLKDLRHTENEEDKVSSSSFRQRMLGNLLRPPYERPELPTCLYVIGLTGISGSGKSSIAQRLKGLGAFVIDSDHLGHRAYAPGGPAYQPVVEAFGTDILHKDGIINRKVLGSRVFGNKKQLKILTDIMWPIIAKLAREEMDRAVAEGKRVCVIDAAVLLEAGWQNLVHEVWTAVIPETEAVRRIVERDGLSEAAAQSRLQSQMSGQQLVEQSHVVLSTLWEPHITQRQVEKAWALLQKRIPKTHQALD
notes: His tag (pCold1 vector); made in house; host or cells: Escherichia coli BL21Star (DE3)
Km [7]: 85.35 ± 13.4 µM
